From US9890166B2, “Imidazopyrrolidine derivatives and their use in the treatment of disease” (NOVARTIS AG, priority 2013, dated 2018)

How the values were obtained:
BRD4 (His-Brd4(44-477)) = BRD4 (His-Brd4(44-477)) (Homo sapiens (Human), UniProt O60885); test: TR-FRET in-vitro binding assay for BRD4; settings: single determination or n ≧ 2 independent determinations, read-out: Biochemical IC50 BRD4
In short: (§1)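 Compounds were serially diluted over eight concentrations and added to wells. TR-FRET signal was then measured.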

BRD2 (His-Brd2(60-472)) = BRD2 (His-Brd2(60-472)) (Homo sapiens (Human), UniProt P25440); test: TR-FRET in-vitro binding assay for BRD2; settings: single determination or n ≧ 2 independent determinations, read-out: Biochemical IC50 BRD2
Sequence of BRD2 (His-Brd2(60-472)) (P25440 60-472): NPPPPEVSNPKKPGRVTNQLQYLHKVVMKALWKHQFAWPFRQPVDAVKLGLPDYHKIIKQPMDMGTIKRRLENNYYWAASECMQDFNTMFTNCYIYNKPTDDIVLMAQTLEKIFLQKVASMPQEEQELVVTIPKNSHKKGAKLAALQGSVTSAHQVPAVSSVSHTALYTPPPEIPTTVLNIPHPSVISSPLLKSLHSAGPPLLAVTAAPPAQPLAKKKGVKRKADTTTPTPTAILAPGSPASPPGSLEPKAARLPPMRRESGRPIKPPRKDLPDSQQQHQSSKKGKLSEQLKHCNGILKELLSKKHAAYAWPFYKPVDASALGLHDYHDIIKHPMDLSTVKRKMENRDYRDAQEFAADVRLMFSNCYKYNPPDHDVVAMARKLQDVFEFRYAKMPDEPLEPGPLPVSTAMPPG
In short: as §1

BRD3 (His-Brd3(20-477)) = BRD3 (His-Brd3(20-477)) (Homo sapiens (Human), UniProt Q15059); test: TR-FRET in-vitro binding assay for BRD3; settings: single determination or n ≧ 2 independent determinations, read-out: Biochemical IC50 BRD3
Sequence of BRD3 (His-Brd3(20-477)) (Q15059 20-477): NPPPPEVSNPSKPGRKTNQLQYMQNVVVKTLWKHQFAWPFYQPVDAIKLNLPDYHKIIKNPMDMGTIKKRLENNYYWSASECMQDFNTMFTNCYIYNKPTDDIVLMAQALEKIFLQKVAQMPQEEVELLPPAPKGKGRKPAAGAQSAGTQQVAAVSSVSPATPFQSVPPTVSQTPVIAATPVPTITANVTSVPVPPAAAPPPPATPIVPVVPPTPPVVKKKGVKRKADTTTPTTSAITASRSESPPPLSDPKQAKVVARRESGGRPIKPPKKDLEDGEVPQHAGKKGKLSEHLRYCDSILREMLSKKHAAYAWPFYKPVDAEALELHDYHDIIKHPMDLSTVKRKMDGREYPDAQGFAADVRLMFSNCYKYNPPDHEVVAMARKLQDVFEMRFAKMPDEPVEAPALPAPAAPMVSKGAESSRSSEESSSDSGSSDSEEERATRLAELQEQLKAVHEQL
In short: as §1

[1] = biological target: CREBBP bromodomain (His-CREBBP(1081-1197)) (Homo sapiens (Human), UniProt Q92793); test: AlphaScreen in-vitro binding assay for CREBBP; settings: single determination or n ≧ 2 independent determinations, read-out: Biochemical IC50 CREBBP
Sequence of CREBBP bromodomain (His-CREBBP(1081-1197)) (Q92793 1081-1197): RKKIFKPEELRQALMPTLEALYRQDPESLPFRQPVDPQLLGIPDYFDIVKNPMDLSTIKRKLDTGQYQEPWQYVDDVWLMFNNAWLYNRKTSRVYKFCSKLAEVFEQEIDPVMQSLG
In short: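 Reactions at 30 °C for 35 min, then Ni-chelate acceptor and streptavidin donor beads in HEPES pH 7.5, NaCl, Tween20, BSA, 60 min at room temperature. Eight-point compound series; IC50 by non-linear regression of percent inhibition.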

THP-1 cells = test: Cell growth inhibition assay (CellTiter-Glo), THP-1; settings: for GI50: Homo sapiens, THP-1, read-out: THP-1 GI50; for THP-1 TGI: THP-1 cells, total growth inhibition, CellTiter-Glo;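 as to all read-outs here: viability read as cellular ATP luminescence after 4 days, 3-fold dilution series from 10 µM, DMSO vehicle-treated cells taken as 100%, cell-free medium wells as −100%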
K-562 cells = test: Cell growth inhibition assay (CellTiter-Glo), K-562; settings: for GI50: Homo sapiens, K562, read-out: K-562 GI50; for K-562 TGI: K-562 cells, total growth inhibition, CellTiter-Glo;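 as to all read-outs here: cellular ATP measured by luminescence after 4 days of exposure, 3-fold dilution series from 10 µM, DMSO vehicle-treated cells define 100%, cell-free medium wells −100%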
MV-4-11 cells = test: Cell growth inhibition assay (CellTiter-Glo), MV-4-11; settings: for GI50: Homo sapiens, MV4-11, read-out: MV-4-11 GI50; for MV-4-11 TGI: MV-4-11 cells, total growth inhibition, CellTiter-Glo;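 as to all read-outs here: cellular ATP luminescence after 4 days, 3-fold dilution series from 10 µM top dose, vehicle (0.1% DMSO) set to 100%, cell-free medium set to −100%, day 0 corrected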

SMILES | IC50 (BRD4 (His-Brd4(44-477))) | IC50 (BRD2 (His-Brd2(60-472))) | IC50 (BRD3 (His-Brd3(20-477))) | IC50 [1] | GI50 (THP-1 cells) | THP-1 TGI (THP-1 cells) | GI50 (K-562 cells) | K-562 TGI (K-562 cells) | GI50 (MV-4-11 cells) | MV-4-11 TGI (MV-4-11 cells)
Cc1cc(N2C(=O)c3nc(C4=CCOCC4)n(C(C)C)c3C2c2ccc(Cl)cc2)cn2c(C(F)F)nnc12 (centres unmarked) [Example 147, 6-(4-chlorophenyl)-5-(3-(difluoromethyl)-8-methyl-[1,2,4]triazolo[4,3-a]pyridin-6-yl)-2-(3,6-dihydro-2H-pyran-4-yl)-1-isopropyl-5,6-dihydropyrrolo[3,4-d]imidazol-4(1H)-one] | 13 nM | 60 nM | 44 nM | 34300 nM | 11.8 nM | 33.55 nM | 52 nM | >10000 nM | 8.12 nM | 16.25 nM
Cc1cc(N2C(=O)c3nc(C4=CCN(C)CC4)[nH]c3C2c2ccc(Cl)cc2)cn(C)c1=O (centres unmarked) [Example 135, 6-(4-chlorophenyl)-5-(1,5-dimethyl-6-oxo-1,6-dihydropyridin-3-yl)-2-(1-methyl-1,2,3,6-tetrahydropyridin-4-yl)-5,6-dihydropyrrolo[3,4-d]imidazol-4(1H)-one] | 31 nM | 53 nM | 37 nM | 3850 nM | 265 nM | 964 nM | 806 nM | >10000 nM | 64.9 nM | 111.5 nM
Cc1cc(N2C(=O)c3nc(C)n(C(C)C)c3C2c2ccc(Cl)cc2)cn2c(C)nnc12 (centres unmarked) [Example 58, 6-(4-chlorophenyl)-5-(3,8-dimethyl-[1,2,4]triazolo[4,3-a]pyridin-6-yl)-1-isopropyl-2-methyl-5,6-dihydropyrrolo[3,4-d]imidazol-4(1H)-one] | 55 nM | 78 nM | 38 nM | 10400 nM | 99.5 nM | 207.5 nM | 366 nM | >10000 nM | 23.8 nM | 48.75 nM
Cc1cc(N2C(=O)c3nc(C4CCN(C)CC4)n(C(C)C)c3C2c2ccc(Cl)cc2)nn2c(C)nnc12 (centres unmarked) [Example 169, 6-(4-chlorophenyl)-5-(3,8-dimethyl-[1,2,4]triazolo[4,3-b]pyridazin-6-yl)-1-isopropyl-2-(1-methylpiperidin-4-yl)-5,6-dihydropyrrolo[3,4-d]imidazol-4(1H)-one] | 19 nM | 25 nM | 33 nM | > 37000 nM | 11.5 nM | 32.95 nM | 55.9 nM | >10000 nM | 1.94 nM | 5.325 nM
Cc1cc(N2C(=O)c3nc(C4CCOCC4)n(C(C)C)c3[C@H]2c2ccc(Cl)cc2)cc2c1nnn2C [Example 82, (R)-6-(4-chlorophenyl)-5-(1,4-dimethyl-1H-benzo[d][1,2,3]triazol-6-yl)-1-isopropyl-2-(tetrahydro-2H-pyran-4-yl)-5,6-dihydropyrrolo[3,4-d]imidazol-4(1H)-one] | < 11 nM | 13 nM | < 11 nM | 1080 nM | 2.54 nM | 9.82 nM | 8.96 nM | >10000 nM | 1.57 nM | 6.03 nM
Cc1cc(N2C(=O)c3nc(C4=CCOCC4)n(C(C)C)c3C2c2ccc(Cl)cc2)cc2c1nnn2C (centres unmarked) [Example 79, 6-(4-chlorophenyl)-2-(3,6-dihydro-2H-pyran-4-yl)-5-(1,4-dimethyl-1H-benzo[d][1,2,3]triazol-6-yl)-1-isopropyl-5,6-dihydropyrrolo[3,4-d]imidazol-4(1H)-one] | 26 nM | 46 nM | 21.5 nM | 3400 nM | 7.92 nM | 17.9 nM | 29.6 nM | >10000 nM | 5.58 nM | 11.1 nM
COc1ncccc1-c1nc2c(n1C(C)C)C(c1ccc(Cl)cc1)N(c1cc(C)c3nnc(C(F)F)n3n1)C2=O (centres unmarked) [Example 148, 6-(4-chlorophenyl)-5-(3-(difluoromethyl)-8-methyl-[1,2,4]triazolo[4,3-b]pyridazin-6-yl)-1-isopropyl-2-(2-methoxypyridin-3-yl)-5,6-dihydropyrrolo[3,4-d]imidazol-4(1H)-one] | 23 nM | 36 nM | 22 nM | > 37000 nM | 9.99 nM | 24.95 nM | 69.5 nM | >10000 nM | 6.47 nM | 13.1 nM
COc1ccc(-c2nc3c(n2C(C)C)C(c2ccc(Cl)cc2)N(c2cc(C)c4nnn(C)c4c2)C3=O)cn1 (centres unmarked) [Example 83, 6-(4-chlorophenyl)-5-(1,4-dimethyl-1H-benzo[d][1,2,3]triazol-6-yl)-1-isopropyl-2-(6-methoxypyridin-3-yl)-5,6-dihydropyrrolo[3,4-d]imidazol-4(1H)-one] | 24 nM | 65 nM | 30 nM | > 37000 nM | 27.1 nM | 72.2 nM | 105 nM | >10000 nM | 23.9 nM | 46.4 nM
Cc1cc(N2C(=O)c3nc(C4=CCN(C)CC4)n(C(C)C)c3C2c2ccc(Cl)cc2)cc2c1nnn2C (centres unmarked) [Example 78, 6-(4-chlorophenyl)-5-(1,4-dimethyl-1H-benzo[d][1,2,3]triazol-6-yl)-1-isopropyl-2-(1-methyl-1,2,3,6-tetrahydropyridin-4-yl)-5,6-dihydropyrrolo[3,4-d]imidazol-4(1H)-one] | 28 nM | 48 nM | 31 nM | 4300 nM | 14.4 nM | 38.8 nM | 49.6 nM | >10000 nM | 4.54 nM | 9.58 nM
COc1ncccc1-c1nc2c([nH]1)C(c1ccc(Cl)cc1)N(c1cc(C)c3nnc(C(F)F)n3c1)C2=O (centres unmarked) [Example 140, 6-(4-chlorophenyl)-5-(3-(difluoromethyl)-8-methyl-[1,2,4]triazolo[4,3-a]pyridin-6-yl)-2-(2-methoxypyridin-3-yl)-5,6-dihydropyrrolo[3,4-d]imidazol-4(1H)-one] | 29 nM | 42 nM | 28 nM | > 37000 nM | 63.6 nM | 124.5 nM | 180 nM | >10000 nM | 38.4 nM | 66.8 nM
COc1ccc(-c2nc3c([nH]2)C(c2ccc(Cl)cc2)N(c2cc(C)c4nnc(C(F)F)n4c2)C3=O)cn1 (centres unmarked) [Example 141, 6-(4-chlorophenyl)-5-(3-(difluoromethyl)-8-methyl-[1,2,4]triazolo[4,3-a]pyridin-6-yl)-2-(6-methoxypyridin-3-yl)-5,6-dihydropyrrolo[3,4-d]imidazol-4(1H)-one] | 23.5 nM | 47 nM | 21 nM | > 37000 nM | 77 nM | 179 nM | 202 nM | >10000 nM | 73.2 nM | 111.5 nM
